In this experiment the test system is CEM cells HIV-1 protection, formazan growth assay. Kind of experiment: NCI AIDS Antiviral Assay. The note with it: for pIC50: measured here: growth of uninfected CEM cells. In short, it runs like this: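 Human CEM cells, uninfected and HIV-1-infected, received five drug concentrations, and growth was read by soluble formazan assay. Compounds giving at least 50% protection were retested; reproducible 100% protection defined confirmed active.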

pEC50, pIC50: −log10 of the molar value. “And” between values parts separate entries of the source, which are not always exact repeats. Equal entries are not always repeated. The source made the active and inactive calls.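 Rule for the calls: active = compounds giving half or more protection of infected cells from virus-caused growth loss, again on retest; inactive = the rest.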 Where a SMILES comes first, the peptide text is derived from it. [ ]: non-standard residue; d: D form. The star is where a group is joined. X11 = Clc1c(Cl)c(Cl)c(O*)c(Cl)c1Cl; NMeF = CN[CH](Cc1ccccc1)C(=O)O; NMeV = CN[CH](C(=O)O)C(C)C; Boc = CC(C)(C)OC(=O)*; OBn = c1ccc(CO*)cc1; Bn = c1ccc(C*)cc1

For the molecule `c1ccc(C2C3=C(Nc4ncnn42)c2ccccc2C3)cc1` (stereo not drawn), the pEC50 was below 4.90 and the pIC50 was 5.14.
Regarding `COc1ccc2[nH]c3c(c2c1)CCNC3CC(C)CCC=C(C)C` (stereo not drawn), the pEC50 is below 4.00 and the pIC50 is 5.20.
With `COc1cc(CC2c3cc(OC)c(OC)cc3CCN2C)ccc1O` (stereo not drawn), the pEC50 is below 3.42 and the pIC50 is 3.86.
For `CC(=O)OCC1OC(n2c(-c3ccccc3)c(C(C)=O)c(-c3cccc4ccccc34)c(C#N)c2=S)C(OC(C)=O)C(OC(C)=O)C1OC(C)=O` (stereo not drawn), the pEC50 is below 3.70; the pIC50 was 4.07 and 3.93.
Turning to `O=C1N[C@H]2CS(=O)(=O)C[C@H]2N1`, the pEC50 was below 3.70 and the pIC50 is below 3.70.
For the molecule `O=C(c1ccccc1)c1nc2ccc(Cl)cc2cc1C(Br)Br`, the pEC50 was below 5.48 and the pIC50 is below 5.48.
As for `CCOc1ccc(NC(=O)C(=O)C(/C(=N/N)C(=O)OC)c2nc3ccc([N+](=O)[O-])cc3[nH]c2=O)cc1` (stereo not drawn), the pEC50 is below 4.84 and the negative logarithm of the IC50 (pIC50) was below 4.84.
Take `CC(=O)N1CCc2[nH]c3ccccc3c2CC1`: the pEC50 was below 3.24 and the pIC50 was 3.63.
Take `CCOc1ccc(N2CC(=O)N3CCCCN3C(=O)C2)cc1`: the pEC50 was below 3.70 and the pIC50 is below 3.70.
As for `O=S(O)CCCCSSCC(O)C(O)CSSCCCCS(=O)O` (stereo not drawn), the result was inactive.
On to `CCOC(=O)/C(=C\c1ccco1)C(C)=O`, for which the pEC50 was below 3.62 and the pIC50 is below 3.62.
`CC(C)CC(NC(=O)C(CCC(=O)OCc1ccccc1)NC(=O)OC(C)(C)C)C(=O)NC(COCc1ccccc1)C(=O)NC(Cc1ccccc1)C(=O)Oc1c(Cl)c(Cl)c(Cl)c(Cl)c1Cl` (stereo not drawn) (Boc-E(OBn)LS(Bn)F-X11; configuration not given here): the pEC50 was below 3.70 and the pIC50 is 4.41.
The matching figures for `Cc1cscc(C)c1=S`: below 3.71 and below 3.71.
The corresponding values for `COc1ccc(C2[C@H]3C(=O)N(c4ccc(Cc5ccc(N6C(=O)[C@@H]7ON(c8ccccc8)C(c8ccc(OC)cc8)[C@@H]7C6=O)cc5)cc4)C(=O)[C@H]3ON2c2ccccc2)cc1` (stereo partly drawn) are below 5.33 and below 5.33.
The corresponding values for `O=C1CCCC1C(O)(C(F)(F)F)C(F)(F)F` (stereo not drawn) are below 3.70 and below 3.70.
Take `O=NNc1ccc(-c2ccccc2)cn1`: the pEC50 was below 3.70 and the pIC50 was 4.36.
For the molecule `CC(=O)OCC1OC(Nc2nncs2)C(OC(C)=O)C1OC(C)=O` (stereo not drawn), the pEC50 is below 3.16 and the pIC50 is 3.25.
The corresponding values for `CCOC(=O)C(=Cc1cccc([N+](=O)[O-])c1)C(=O)OCC` are below 4.05 and 5.05.
Turning to `CCn1c(SCC(=O)N/N=C/c2ccccc2)nc2ccccc2c1=O`, the pEC50 was below 3.70 and the pIC50 is 4.63.
As to `Cn1c(=O)c2nc3c(nc2n(C)c1=O)oc1ccccc13`, the result was inactive.
In the case of `O=c1[nH]c2ccccc2c(=O)c2cc3ccccc3cc12`, the pEC50 is below 3.70 and the negative-log IC50 (pIC50) was below 3.70.
For `COC(=O)c1ncn(Cc2ccccc2)c1N`, the pEC50 is below 3.70 and the negative logarithm of the IC50 (pIC50) was below 4.00.
The matching figures for `CC(C)CC(NC(=O)C(CSc1ccc([N+](=O)[O-])cc1)Cc1ccccc1)C(=O)Nc1ccccc1` (stereo not drawn): below 4.00 and below 4.00.
Consider `CCOC(=S)SCC(=O)c1cccc([N+](=O)[O-])c1`, for which the result was inactive.
As for `CCCCCCCCCCCCOCCCCCCCCC/C=C/c1ccc2c(c1)OCCOCCOCCOCCO2`, the pEC50 was below 3.70 and the pIC50 was 4.82.
The corresponding values for `COc1cc2c(oc(=O)c3cc4ccoc4c(OC)c32)c2cccc(O)c12` are below 5.84 and below 5.84.
For the molecule `Cc1cc(S(=O)(=O)Nc2nc(N)n(-c3ccccn3)n2)c(S)cc1Cl`, the pEC50 is 3.94 and the pIC50 was below 3.70.
The corresponding values for `CC1(C)OC2OC(C(COC(=O)c3ccccc3)OC(=O)c3ccccc3)C(F)C2O1` (stereo not drawn) are below 4.36 and below 4.36.
The matching figures for `C1COC2SC3=C(SC(=C4SC5=C(SCCS5)S4)S3)SC2O1` (stereo not drawn): below 4.00 and below 4.00.
As for `CCN(CCCl)c1cc(C[N+](C)(C)[O-])cc(NC(=O)c2ccc(C(=O)Nc3cc(C[N+](C)(C)[O-])cc(N(CC)CCCl)c3)cc2)c1`, the pEC50 was below 3.70 and the pIC50 was 4.44.
The matching figures for `COc1ccc2nc3c([N+](=O)[O-])ccc4c3c(c2c1)NCCN4C`: below 4.00 and 6.29.
For `O=c1sc2c(s1)-c1sc(=O)sc1SS2`, the pEC50 is below 4.11 and the negative logarithm of the IC50 (pIC50) is 4.29.
On to `CCOc1ccccc1NC(=O)CC1Sc2ccccc2NC1=O` (stereo not drawn), for which the pEC50 was below 4.26 and the pIC50 is below 4.26.
For the molecule `Cc1ccccc1N=CN(C)C`, the pEC50 is below 3.70 and the negative logarithm of the IC50 (pIC50) is 4.37.
The corresponding values for `C=CCC12CC(OC)C(O)CC1(O)OC(c1cc(OC)c(OC)c(OC)c1)C2C` (stereo not drawn) are below 3.70 and below 3.70.
As to `CCOC(=O)C1(C(=O)OCC)NC(=O)CC1CC` (stereo not drawn), the result was inactive.
As to `Cc1cc2nc(=O)cc(CCl)n2c(=O)n1C(=O)C(O)C(O)C(O)CO` (stereo not drawn), the result was inactive.
Take `CCCCCCCCCCCCCCCC(=O)OC1C(O)C(CO)OC(OC)C1NC(=O)N(CCCl)N=O` (stereo not drawn): the pEC50 is below 4.90 and the pIC50 was below 4.90.
Take `CCc1ccccc1NC(=O)C(=O)C(C#N)c1ccccc1Cl` (stereo not drawn): the pEC50 is below 3.42 and the pIC50 is below 3.42.
In the case of `CC1CC(=O)C2CC(CO)=CCCC2C1(C)CC/C(=C/CO)CO` (stereo not drawn), the result was inactive.
For the molecule `CC(=S)N/C=C(\C#N)c1nc2ccccc2s1`, the pEC50 is below 3.70 and the pIC50 is 3.97.
The corresponding values for `Cc1ccc2c(c1)C(=O)C1(C2)Cc2ccc(C)cc2C1=O` are 3.72 and below 3.70.
`CC(C)(C)NC(=O)N1N=C(c2ccccc2)C1c1ccccc1` (stereo not drawn): the pEC50 is below 3.70 and the pIC50 was 4.57.
For the molecule `CC1=C(O)/C(=C/C(C)CCC/C(C)=C/C=C/C(C)CCCc2ccoc2)OC1=O` (stereo not drawn), the result was inactive.
Turning to `CN(C)c1cc(CNCCSC(C)(C)C)nc(CNCCSC(C)(C)C)c1`, the pEC50 was below 3.70 and the negative-log IC50 (pIC50) is 5.34.
Regarding `CC(C)C(NC(=O)OC(C)(C)C)C(=O)N(C)C(Cc1ccccc1)C(=O)N(C)C(C(=O)OCc1ccccc1)C(C)C` (stereo not drawn) (Boc-Val-[NMeF]-[NMeV]-OBn; configuration not given here), the pEC50 is below 3.70; the pIC50 is 4.09 and 3.96.
Turning to `Cc1cc(S(=O)(=O)Nc2nnc3ccccn23)c(S)cc1Cl`, the pEC50 was 3.99 and the pIC50 was 3.42.
The matching figures for `COC(=O)[C@@H]1Cc2c3n(c4ccccc24)C(=O)CCC3N1C` (stereo partly drawn): below 3.38 and 3.53.
The corresponding values for `COc1cc(-c2cc(=O)c3c(OC)c(OC)c(OC)c(OC)c3o2)cc(OC)c1OC` are below 3.70 and 4.55.
The matching figures for `COc1cccc(NC(=O)CC(=O)N2N=C(C)C(N=Nc3ccc(S(=O)(=O)c4ccc(N=NC5C(=O)N(C(=O)CC(=O)Nc6cccc(OC)c6)N=C5C)cc4)cc3)C2=O)c1` (stereo not drawn): 3.75 and below 3.70.
